In one assay the test system is A-549 xenografts. The assay can be described thus: CD31 IHC microvessel count in A-549 xenograft tumors. The format is in vivo, nude mice. Conditions: 5 mg/Kg, tumors processed two hours after last i.p. injection. The protocol: FIGS. 7A-7B illustrates CD31 IHC staining as described under Materials and Methods for tumors processed two hours after the last i.p. injection for a control (FIG. 7A) and GFB204 (FIG. 7B). Quantification of microvessels density (400×) was determined as described under Materials and Methods. SE, standard error. FIGS. 7A and 7B Microvessel Count; FIG. 7A=11.3±1.9; FIG. 7B=2.6±0.9.
IHC study. On the termination day of antitumor experiments, the tumors were extracted and fixed in 10% neutral buffered formalin for 6 hours. After fixation, the tissue samples were processed into paraffin blocks. Tissue sections (4 μm thick) were obtained from the parablocks and stained with hematoxylin and eosin (H&E) using standard histological techniques. Tissue sections were also subjected to immunostaining for CD31 (BD Biosciences, San Diego, Calif.) using the avidin biotin peroxidase complex technique (Blaskovich, M. A. et al. Nat Biotechnol, 2000, 18:1065-70). Mouse monoclonal antibody was used at 1:50 dilution, following microwave antigen retrieval (four cycles of 5 minutes each on high in 0.1M citrate buffer).

Assay [1] has as its system bFGF-stimulated Erk1, Erk2, Akt and STAT3 phosphorylation. The assay can be described thus: bFGF-stimulated phosphorylation of Erk1/2, Akt and STAT3 in NIH 3T3 cells. The format is cell-based, mouse. The note with it: GFB204 10 μM. The method, then: FIGS. 3A and 3B show the effect of GFB204 on growth factor stimulated Erk1, Erk2, Akt, and STAT3 phosphorylation. GFB204 inhibits VEGF and PDGF stimulation of Flk-1 tyrosine phosphorylation and Erk1/Erk2 phosphorylation (FIG. 3A). NIH 3T3 cells or Flk-1/NIH 3T3 cells were treated with increasing concentrations of GFB204 for 5 minutes prior to stimulation with PDGFBB (10 ng/ml) or VEGF (50 ng/ml), respectively, for 10 minutes. The cells were then lysed and processed for SDS-PAGE Western blotting with an antibody specific for phosphotyrosine-Flk-1 or anti-phosphotyrosine for PDGFR tyrosine phosphorylation or phospho-Erk1/2. GFB204 effects on growth factor-stimulated Erk1, Erk2, Akt and STAT3 phosphorylation (FIG. 3B). NIH 3T3, Flk-1/NIH 3T3, IGF-1R/NIH 3T3 or EGFR/NIH 3T3 cells were treated with GFB204 (10 μM) prior to stimulation with PDGF (NIH 3T3) VEGF (Flk-1/NIH 3T3), EGF (EGFR/NIH 3T3), bFGF (NIH 3T3) or IGF-1 (IGF-1R/NIH 3T3). The cells were then harvested and processed for SDS-PAGE Western blotting with antibodies specific for phospho-Erk1/2, phospho-Akt and phospho-STAT3.
Growth factor-mediated stimulation of phosphorylation of Erk1/2, Akt and STAT3. […]

Assay [2] concerns Human middle cerebral artery endothelial cells. Put plainly: VEGF-induced capillary network formation on Matrigel. The format is cell-based. The note with it: Endothelial cell, VEGF 20 ng/ml. The protocol:
FIGS. 4A-4C show the effects of GFB204 on angiogenesis in vitro. GFB204 inhibits capillary network formation in a dose-response manner (FIG. 4C). Human middle cerebral artery endothelial cells (5×10^4) were seeded onto Matrigel and the cells were incubated with VEGF in the presence (FIG. 4B) or absence (FIG. 4A) of GFB204 as described under Materials and Methods.
Capillary network formation. 200 μl of Matrigel was placed into each well of a 24-well culture plate at 4° C. and allowed to polymerize by incubation at 37° C. as described previously (Papadimitriou, E. et al. Biochem Biophys Res Commun, 2001, 282:306-13). Human middle cerebral artery endothelial cells (5×10^4) were seeded on the Matrigel in 1 ml of EBM containing VEGF (20 ng/ml). Each sample was photographed using a 10× objective lens, and quantified the total length of tube structures in each photograph using the Image Pro Plus software (Media Cybernetic, Inc., Md.).

The test system of another assay is PDGFR. Put plainly: 125I-PDGF binding to its receptor on NIH 3T3 cells. Set-up: species or system mouse. Conditions: 4° C., 0.5 hours, read-out: IC50 inhibition of [I-125]PDGF binding to its receptor. The method, then:
Flk-1/NIH 3T3, NIH 3T3 and EGFR/NIH 3T3 cells were incubated with ^125I-VEGF, ^125I-PDGF and ^125I-EGF (50,000 cpm/well) respectively, along with increasing concentrations of GFB204. Cells were incubated at 4° C. for 0.5 hours, then washed three times with PBS and three times with lysis buffer prior to determining ^125I counts as described under Materials and Methods. An excess of cold VEGF, PDGF, and EGF was used to obtain non-specific binding levels. FIGS. 2A-2C show specific binding (% control) for PDGFR, Flk-1, and EGFR, respectively.
Binding of ^125I-growth factors to their receptors. The binding assay of ^125I-VEGF, ^125I-PDGF and ^125I-EGF to their respective receptors was carried out as described previously (Blaskovich, M. A. et al. Nat Biotechnol, 2000, 18:1065-70. Briefly, Flk-1/NIH 3T3 cells, NIH 3T3 cells and EGFR/NIH 3T3 cells were incubated with ^125I-VEGF, ^125I-PDGF and ^125I-EGF (50,000 cpm/well), respectively, and increasing concentrations of GFB204. Cells were incubated at 4° C. for 0.5 hours, then washed three times with PBS and three times with 25 mM Tris, pH 8.0, 1% Triton-X-100, 10% glycerol, and 1% SDS prior to determining ^125I counts on a gamma counter (Beckmann Inc.). An excess of cold growth factors were used to obtain nonspecific binding levels.

Structures are written as SMILES. Several values for one entry are separate records, joined by “and”; a condition that tells them apart may be missing. Identical values can stand only once.

With `CCCCOc1c2cc(C(=O)Nc3cc(C(=O)O)cc(C(=O)OCc4ccccc4)c3)cc1Cc1cc(C(=O)Nc3cc(C(=O)O)cc(C(=O)OCc4ccccc4)c3)cc(c1OCCCC)Cc1cc(C(=O)Nc3cc(C(=O)O)cc(C(=O)OCc4ccccc4)c3)cc(c1OCCCC)Cc1cc(C(=O)Nc3cc(C(=O)O)cc(C(=O)OCc4ccccc4)c3)cc(c1OCCCC)C2` [GFB204], the “microvessels per field (400×), CD31 staining” value in the assay on A-549 xenografts came out at 2.6±0.9. Further, the “bFGF-stimulation of the phosphorylation of Erk1, Erk2, Akt and STAT3” value in assay [1] was “had little effect and not”. Besides, the half-inhibitory concentration (IC50) in assay [2] is 700 nM; in the assay on PDGFR, 154 nM and 200 to 500 nM.

The values above are taken from patent US7718700B2, “Growth factor-binding compounds and methods of use” (Yale University, priority 2004, dated 2010).
